In test [1] the test system is striatal DOPAC. The test is described as follows: Striatal DOPAC tissue level (HPLC/EC), interaction with Tetrabenazine. Conditions: percentage of Tetrabenazine control group mean.
Test [2] concerns Male Sprague-Dawley rats. The settings on record: for Locomotor activity, % of Tetrabenazine control group mean: full hour of recording.
Excerpt: No brain tissue was collected from this experiment. […] Each activity monitor consists of a quadratic metal frame equipped with photobeam sensors. […] Each activity monitor is equipped with three rows of infrared photobeam sensors, each row consisting of 16 sensors. […] Photobeam sensors are spaced 2.5 cm apart. Each activity monitor is fitted in an identical sound and light attenuating box (W×L×H—55×55×45) containing a weak house light and a fan. The computer software is written using object oriented programming (LabVIEW™, National instruments, Austin, Tex., USA). Behavioural data from each activity monitor, representing the position (horizontal center of gravity and vertical activity) of the animal at each time, are recorded at a sampling frequency of 25 Hz and collected using a custom written LABView™ application. The data from each recording session are stored and analyzed with respect to distance travelled. Each behavioural recording session lasts 60 min, starting approximately 4 min after the injection of test compound. The results are presented as counts/60 minutes, counts/45 minutes or counts/15 minutes, in arbitrary length units. Statistical comparisons are carried out using Student's t-test against the control group.
The test system of test [3] is Arc mRNA. Nature of the test: Arc gene expression (Arc mRNA, real-time PCR) in striatum and frontal cortex, dose-response studies. It is filed as in vivo, rat. The method, then: (§1) Rats weighed 160-180 g at the time of arrival.
(§2) All compounds were injected s.c. four minutes before start of locomotor activity recording at a volume of 5 ml/kg.
Reference genes are HPRT and cyclophilin.
Correct PCR products are confirmed by agarose gel electroforesis (2%) PCR products are purified with PCR purification kit from Qiagen (Valencia, Calif., USA). All genes are sequenced at MWG, Germany.
For the data shown in FIG. 6, the reverse transcription and PCR were performed as follows:
Reversed transcription is performed by using a ThermoScript kit (Invitrogen).
cDNA of Arc and two reference genes, hypoxanthine-guanine phosphoribosyltransferase (HPRT) and cyclophilin A, was amplified by real-time PCR in either a triplex reaction (Tetrabenazine studies) or three singleplex reactions (studies with Pridopidine and haloperidol).

Test [4] relates to Arc mRNA. Nature of the test: Arc gene expression (Arc mRNA, real-time PCR) in striatum and frontal cortex, interaction with Tetrabenazine.
The subject of test [5] is striatal dopamine. Nature of the test: Striatal dopamine (DA) tissue level (HPLC/EC), dose-response in naive rats. It is filed as in vivo, rat. The settings on record: for DA striatum, dose-response in naive rats: mean ± SEM, percentage of vehicle control group mean. As to the method: as §1
(§3) The treatment groups consisted of Vehicle (saline; NaCl 0.9% v/w) and ACR16 tested at three doses (11; 33 and 100 μmol/kg).
(§4) KR104: Animals were allocated into five different treatment groups, n=4.
as §2
(§5) A digital sonifier (Branson Digital Sonifier 250-D) was used to homogenise tissue from the striatum and limbic region. […] All samples were centrifuged at 10.000 rpm for 10 minutes at +4° C. Cortex tissue was filtered in Munktell filter paper 5.5 cm quality 1 F. Tissue eluates were analysed with respect to tissue concentrations (ng/g tissue) of the monoamine transmitter substances (Norepinephrine (NA), dopamine (DA), 5-hydroxytryptamine (5-HT)) as well as their amine metabolites (normetanephrine (NM), 3-methoxytyramine (3-MT)) and acid metabolites ([…] (DOPAC), 5-hydrocyindoleacetic acid (5-HTAA), homovanillic acid (HVA)) by HPLC separations and electrochemical detection (HPLC/EC). Stock standards (DA, NA, 5-HT, 3-MT, DOPAC, HVA, HIAA, 500 μg/ml) and internal standard (AMDA 500 μg/ml) are prepared once every three months. 5-HT and 5HIAA are dissolved in milliQ water. DA, NA, DOPAC, NM, 3-MT and HVA are dissolved in 0.01 M HCl. 5-HT, 5-HIAA, NM and HVA are kept in fridge; DA, DOPAC, NA and 3-MT are kept in freezer.
(§6) Detection potentials relative to Ag/AgCl reference are 0.45 and 0.60V. […] Detection potentials relative to Ag/AgCl reference are 0.45 and 0.65V.

In test [6] the test system is striatal DOPAC. The test is described as follows: Striatal DOPAC tissue level (HPLC/EC), dose-response in naive rats. It is filed as in vivo, rat. The settings on record: mean ± SEM, percentage of vehicle control group mean. As to the method:
as §1, §3, §4, §2, §5, §6

Test [7] concerns striatal dopamine. Nature of the test: Striatal dopamine (DA) tissue level (HPLC/EC), interaction with Tetrabenazine. The settings on record: percentage of Tetrabenazine control group mean.
The subject of test [8] is Male Sprague-Dawley rats. The test is described as follows: Spontaneous locomotor activity, dose-response in drug-naive rats. The format is in vivo, rat. Conditions: for Spontaneous locomotor activity, % of the vehicle control group mean: full hour of recording; for Spontaneous locomotor activity, period 15-60 minutes post dosing (in words) / Spontaneous locomotor activity, initial 15 min (in words): vs vehicle control; for Effect on spontaneous locomotor activity (in words): all doses tested, 60 min recording; for Spontaneous locomotor activity, initial 15 min (in words): initial 15 min of recording. The method, then:
as §1, §3, §4, §2
During measurements of behavioural activity, a rat is put in a transparent acrylic cage with matted black floor (W×L×H, 41×41×30 cm) which in turn is placed in the activity monitor. […] Two rows are placed along the front and the side of the floor of the cage, at a 90 degree angle, and the third row is placed 10 cm above the floor to measure vertical activity. Photobeam sensors are spaced 2.5 cm apart.

Where [9] appears, read: 0.04 mg/kg s.c. together with Tetrabenazine 0.64 mg/kg.
[10] abbreviates: 0.12 mg/kg s.c. together with Tetrabenazine 0.64 mg/kg.
[11] abbreviates: 0.64 mg/kg s.c., vs vehicle control.

From patent publication US11207308B2, “Pharmaceutical compositions for combination therapy” (PRILENIA NEUROTHERAPEUTICS LTD., priority 2012, dated 2021) come the findings set out here.

“And” between values parts separate entries of the source, which are not always exact repeats. Equal values may be shown once. “Also recorded” adds a separate entry of the source. Read-outs that look alike come from different tables or passages of the source.

Consider `O=C(CCCN1CCC(O)(c2ccc(Cl)cc2)CC1)c1ccc(F)cc1` [Haloperidol], for which the “DOPAC striatum, interaction with Tetrabenazine” value in the test with striatal DOPAC [1] (setting [9]) is 187% and 187 ± 6 %; in the test on striatal DOPAC [1] (setting [10]), 218% and 218 ± 12 %. In addition, the “Locomotor activity, % of Tetrabenazine control group mean” value is recorded as 51% in the test on Male Sprague-Dawley rats [2] (0.04 mg/kg s.c. combined with Tetrabenazine 0.64 mg/kg) and 41% in the test with Male Sprague-Dawley rats [2] (0.12 mg/kg s.c. combined with Tetrabenazine 0.64 mg/kg). Moreover, in the test with Male Sprague-Dawley rats [2] (15-60 min period, combined with Tetrabenazine 0.64 mg/kg, vs Tetrabenazine control), the “Locomotor activity in Tetrabenazine treated rats, 15-60 min (in words)” value was “the reduction was significant for the 0.12 mg/kg dose only”. In addition, the “Effect on Tetrabenazine induced locomotor activity reduction (in words)” value in the test on Male Sprague-Dawley rats [2] (combined with Tetrabenazine 0.64 mg/kg s.c.) was “further reduced locomotor activity in animals treated with Tetrabenazine”. In addition, the “Locomotor activity in Tetrabenazine treated rats, 0-15 min (in words)” value with Male Sprague-Dawley rats [2] (first 15 min, combined with Tetrabenazine 0.64 mg/kg, vs Tetrabenazine control) is “this reducing effect was significant at both the 0.04 mg/kg (P<0.01) and the 0.12 mg/kg (P<0.05) doses”. The “Arc mRNA in the striatum, % of the vehicle control group mean” value was found to be 262% in the test on Arc mRNA [3] (0.12 mg/kg s.c.), 331% with Arc mRNA [3] (0.37 mg/kg s.c.) and 409% in the test with Arc mRNA [3] (1.1 mg/kg s.c.). Further, the “Cortical Arc gene expression (in words)” value in the test on Arc mRNA [3] (dose-response, 0.12, 0.37 and 1.1 mg/kg s.c.) is “no significant effect”. Also, the “Striatal Arc, % of the Tetrabenazine control group mean” value in the test on Arc mRNA [4] (0.04 mg/kg s.c. coadministered with Tetrabenazine 0.64 mg/kg) was 272%; in the test with Arc mRNA [4] (0.12 mg/kg s.c. coadministered with Tetrabenazine 0.64 mg/kg) it was 400%. The “Cortical Arc gene expression in rats co-treated with Tetrabenazine (in words)” value in the test on Arc mRNA [4] (0.04 and 0.12 mg/kg s.c. with Tetrabenazine 0.64 mg/kg) is recorded as “no significant effect”. Also, the “DA striatum, dose-response in naive rats” value in the test on striatal dopamine [5] (0.04 mg/kg s.c.) is listed as 95 ± 5%; in the test on striatal dopamine [5] (0.12 mg/kg s.c.) it was 78 ± 3 %; in the test on striatal dopamine [5] (0.37 mg/kg s.c.), 79 ± 5 %; in the test on striatal dopamine [5] (1.1 mg/kg s.c.) it was 81 ± 2 %. For the same compound, the “DOPAC striatum, dose-response in naive rats” value with striatal DOPAC [6] (0.04 mg/kg s.c.) is 171 ± 35%; with striatal DOPAC [6] (0.12 mg/kg s.c.), 276 ± 8 %; with striatal DOPAC [6] (0.37 mg/kg s.c.), 254 ± 17 %; with striatal DOPAC [6] (1.1 mg/kg s.c.), 292 ± 10 %. Further, the results for the “DA striatum, interaction with Tetrabenazine” value with striatal dopamine [7] (setting [9]) and in the test on striatal dopamine [7] (setting [10]) were 79 ± 3 % and 87 ± 10%, respectively. Moreover, the “Spontaneous locomotor activity, % of the vehicle control group mean” value with Male Sprague-Dawley rats [8] (0.37 mg/kg s.c.) and in the test on Male Sprague-Dawley rats [8] (1.1 mg/kg s.c.) was “about 35%” each time. The “Spontaneous locomotor activity, period 15-60 minutes post dosing (in words)” value in the test on Male Sprague-Dawley rats [8] is reported as “a significant effect (P<0.05) was observed for the 1.1 mg/kg dose group only”. The “Effect on spontaneous locomotor activity (in words)” value in the test on Male Sprague-Dawley rats [8] (s.c.) was “dose-dependent inhibitory effect on spontaneous locomotor activity”. In addition, in the test on Male Sprague-Dawley rats [8], the “Spontaneous locomotor activity, initial 15 min (in words)” value was “significant reductions (P<0.05) were seen both for the 0.37 and 1.1 mg/kg haloperidol dose groups”. The “Doses with statistically significant effects on spontaneous locomotor activity” value in the test with Male Sprague-Dawley rats [8] (s.c., not at the lowest dose tested, 0.04 mg/kg) is on record as at least 0.12 mg/kg.

Regarding `COc1cc2c(cc1OC)C1CC(=O)C(CC(C)C)CN1CC2` (stereo not drawn) [Tetrabenazine, (SS,RR)-3-Isobutyl-9,10-dimethoxy-1,3,4,6,7,11b-hexahydro-pyrido[2,1-a]isoquinolin-2-one], the “Arc mRNA in the frontal cortex, % of control group mean” value in the test with Arc mRNA [3] (0.64 mg/kg s.c., trend, p=0.14) was 83%. Also, in the test on Arc mRNA [3] (setting [11]), the “Frontal cortex Arc mRNA, Tetrabenazine alone in the interaction experiments (in words)” value is recorded as “significant decrease; also recorded: tended to decrease”. In addition, in the test on Arc mRNA [3] (setting [11]), the “Striatal Arc mRNA, Tetrabenazine alone in the interaction experiments (in words)” value was “no significant effect”. Besides, the “Arc mRNA in the frontal cortex, % of the vehicle control group mean” value with Arc mRNA [3] (1.1 mg/kg s.c.) amounted to 66%. Besides, the “Arc mRNA in the striatum, % of the vehicle control group mean” value in the test on Arc mRNA [3] (1.1 mg/kg s.c.) is reported as 147%. Besides, the results for the “DA striatum, dose-response in naive rats” value in the test with striatal dopamine [5] (0.37 mg/kg s.c.), in the test on striatal dopamine [5] (0.64 mg/kg s.c.) and with striatal dopamine [5] (1.1 mg/kg s.c.) were 48 ± 2 %, 33 ± 3 % and 20 ± 2 %, respectively. In addition, in the test with striatal dopamine [5] (0.64 mg/kg, the dose used in the interaction experiments, throughout the studies performed), the “Striatal dopamine, % of vehicle control group mean” value is “approximately 50%”. The “DOPAC striatum, dose-response in naive rats” value is 144 ± 8 % with striatal DOPAC [6] (0.37 mg/kg s.c.), 208 ± 14 % in the test on striatal DOPAC [6] (0.64 mg/kg s.c.) and 263 ± 19 % in the test with striatal DOPAC [6] (1.1 mg/kg s.c.). Moreover, the “Locomotor activity, Tetrabenazine control group vs. vehicle treated controls (in words)” value in the test with Male Sprague-Dawley rats [8] (0.64 mg/kg s.c., full hour (P<0.001), 0-15 min and 15-60 min (P<0.01), interaction experiment with Pridopidine) is “significant decrease”. For the same compound, the “Spontaneous locomotor activity, % of the vehicle control group mean” value with Male Sprague-Dawley rats [8] (1.1 mg/kg s.c.) amounted to 40%. In addition, the “Spontaneous locomotor activity, period 15-60 minutes post dosing (in words)” value with Male Sprague-Dawley rats [8] is “significant effects (P<0.05) were observed at 0.64 and 1.1 mg/kg”. Besides, the “Effect on spontaneous locomotor activity (in words)” value with Male Sprague-Dawley rats [8] (s.c.) is recorded as “dose dependently inhibited spontaneous locomotor activity”. Moreover, the “Spontaneous locomotor activity, initial 15 min (in words)” value with Male Sprague-Dawley rats [8] is “significant reductions (P<0.05) were seen both for the 1.1 and 0.37 mg/kg”.
